Source: ChEMBL document CHEMBL1201862, “PubChem BioAssay data set” (2004)
The source made the active and inactive calls.

What was measured:
[1] = Vero cell cytotoxicity, cytotoxicity control for M. tuberculosis inhibitor project, purified and synthesized samples, set 3 (AID 504684); format: functional
Cysteine protease ATG4B = target: T1, Cysteine protease ATG4B (Homo sapiens, UniProt Q9Y4P1); format: functional;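 further: Fluorescence-based dose-response confirmation assay measuring inhibition of ATG4B activity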
T1 sequence (Q9Y4P1 whole entry): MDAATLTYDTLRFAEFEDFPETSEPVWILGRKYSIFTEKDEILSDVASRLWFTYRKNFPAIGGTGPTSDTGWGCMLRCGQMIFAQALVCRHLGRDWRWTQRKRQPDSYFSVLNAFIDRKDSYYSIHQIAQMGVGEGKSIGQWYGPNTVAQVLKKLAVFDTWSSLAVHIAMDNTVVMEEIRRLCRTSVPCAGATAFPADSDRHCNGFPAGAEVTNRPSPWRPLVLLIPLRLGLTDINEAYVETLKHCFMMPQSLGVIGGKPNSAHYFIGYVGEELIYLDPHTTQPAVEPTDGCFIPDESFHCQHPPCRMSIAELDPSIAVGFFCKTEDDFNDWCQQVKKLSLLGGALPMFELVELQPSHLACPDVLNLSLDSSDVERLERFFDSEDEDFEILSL

Phospholipase A2 = Phospholipase A2 (Homo sapiens, UniProt P04054); format: functional;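 further: confirmatory dose-response counterscreen on phospholipase A2, testing hits that came from an ultra-high-throughput screen for ATG4B inhibitors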
Fatty acid synthase [2] = target: T2, Fatty acid synthase (Homo sapiens, UniProt P49327); test: inhibition of human FAS-TE enzyme activity – biochemical, endpoint fluorescence intensity, uHTS hits, dose response (AID 624327); format: functional;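 further: fluorescence from hydrolysis of an O-methyl fluorescein acyl ester substrate by the enzyme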
Fatty acid synthase [3] = target: T2, Fatty acid synthase; test: inhibition of human FAS-TE enzyme activity – biochemical, kinetic fluorescence intensity, dose response (AID 624326); format: functional;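 further: rate of fluorescence rise from hydrolysis of a fluorogenic O-methyl fluorescein ester substrate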
BJ [4] = test: BJ-TERT fibroblast viability loss – cell-based, RAS-independent, luminescence, dose response (AID 1933); format: functional; settings: Homo sapiens
BJ [5] = test: cells; format: functional, cell-based; settings: Homo sapiens
[6] = target: Luciferin 4-monooxygenase (Photinus pyralis, UniProt P08659); test: inhibition of purified Photinus pyralis luciferase – biochemical, luminescence, dose response (AID 1891)
[7] = Luminescence Cell-Based Dose Confirmation HTS to Identify Inhibitors of Platelet Dense Granule Release. [Related pubchem assays: 1663 (Primary HTS), 1678 (Summary of Project)]; format: functional
BJ [8] = test: BJ-TERT-LT-ST fibroblast viability loss – cell-based, RAS-independent, luminescence, dose response (AID 1935); format: functional; settings: Homo sapiens;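 further: BJ fibroblasts immortalized with TERT plus LT and ST oncogenes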
[9] = DRD fibroblast viability loss – cell-based, non-viral oncogenic, luminescence, dose response (AID 1934); format: functional; settings: Homo sapiens
[10] = Luminescence Cell-Based Dose Retest to Confirm Inhibitors of Cancer Stem Cells. [Related pubchem assays (depositor defined):AID2717, AID2721]; format: functional; settings: Homo sapiens
BJ [11] = test: growth inhibition of engineered Ras-driven BJ cells – cell-based, alamar blue fluorescence, cherrypicked samples, dose response (AID 2631); format: functional; settings: Homo sapiens;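 further: confirmatory dose-response assay in RAS-dependent BJ fibroblasts engineered with TERT, LT and ST, with cytotoxicity read by fluorescence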
[12] = target: DNA (cytosine-5)-methyltransferase 1 (Homo sapiens, UniProt P26358); test: inhibition of DNA methylation by DNMT1 – biochemical, fluorescent molecular beacon, confirmation (AID 602386); format: functional
[13] = target: Ras and Rab interactor 1/Tyrosine-protein kinase ABL1 (Homo sapiens, UniProt P00519+Q13671); format: functional;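 further: biochemical TR-FRET dose-response test measuring inhibition of binding between Rin1 and Abl proteins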
[14] = NIH-3T3 fibroblast cytotoxicity, dose response, cytotoxicity control, cell-based, fluorescence, Alamar Blue, secondary assay (AID 2327); format: functional;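 further: NIH-3T3 mouse fibroblasts cultured with fluconazole at 8 µg/mL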
[15] = decrease of insulin promoter-GFP reporter – imaging, high-content screening, mouse beta cells (AID 1628); format: functional; settings: MIN6
[16] = tested on: Streptococcus sp. 'group A'; test: Streptococcus pyogenes SK(-)GAS viability under kanamycin – luminescence, BacTiterGlo, confirmation, counter-screen for streptokinase expression inhibitor project, dose response (AID 1900); format: functional, organism-based
[17] = MIN6 cell viability loss – mouse insulinoma, cytotoxicity control, dose response (AID 2122); format: functional;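 further: confirmatory high-throughput counterscreen run to flag cytotoxic compounds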
[18] = fluconazole-exposed Candida albicans growth modulators – fluorescence, retest, confirmation (AID 2467); format: functional, cell-based
[19] = target: T3, Serine/threonine-protein phosphatase (Candida dubliniensis (strain CD36 / CBS 7987 / NCPF 3949 / NRRLY-17841) (Yeast), UniProt B9W6M3); test: blockers of CaCl2-induced CDRE-lacZ signaling – S. cerevisiae, luminescence, secondary, dose response (AID 2388); format: functional, cell-based;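 further: yeast reporter cells carrying a calcineurin-responsive lacZ construct stimulated with calcium chloride; luminescent beta-galactosidase reporter signal in whole cells rather than isolated phosphatase activity; potency for inhibition where a drop in reporter signal means calcineurin blockade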
T3 sequence (B9W6M3 whole entry): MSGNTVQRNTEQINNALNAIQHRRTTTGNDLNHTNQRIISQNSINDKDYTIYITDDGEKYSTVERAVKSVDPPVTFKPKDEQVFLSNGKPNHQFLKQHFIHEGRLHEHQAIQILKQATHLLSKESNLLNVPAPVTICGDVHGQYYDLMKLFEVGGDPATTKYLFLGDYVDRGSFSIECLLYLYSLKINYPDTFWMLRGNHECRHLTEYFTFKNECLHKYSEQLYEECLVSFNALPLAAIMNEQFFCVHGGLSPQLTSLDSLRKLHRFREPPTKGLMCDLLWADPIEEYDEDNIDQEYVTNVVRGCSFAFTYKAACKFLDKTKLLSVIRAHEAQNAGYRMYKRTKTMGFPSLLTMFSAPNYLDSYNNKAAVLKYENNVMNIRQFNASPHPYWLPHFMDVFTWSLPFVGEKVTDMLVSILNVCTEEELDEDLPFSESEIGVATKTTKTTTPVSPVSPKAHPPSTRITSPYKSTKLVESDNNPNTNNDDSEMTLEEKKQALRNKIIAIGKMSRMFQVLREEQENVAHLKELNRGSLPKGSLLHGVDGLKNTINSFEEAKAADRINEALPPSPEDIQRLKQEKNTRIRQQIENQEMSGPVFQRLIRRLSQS

Streptococcus = test: GAS UMAA2166 growth inhibition – luminescence, BacTiterGlo, counter-screen for streptokinase expression inhibitor project, dose response (AID 1915); format: functional, organism-based;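 further: potency for reduction of bacterial viability or growth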
[20] = target: T4, High affinity choline transporter 1 (Homo sapiens, UniProt Q9GZV3); test: human choline transporter blockers, potency – cell-based, 5-point CRC, membrane potential dye, dose response (AID 504840); format: functional
T4 sequence (Q9GZV3 whole entry): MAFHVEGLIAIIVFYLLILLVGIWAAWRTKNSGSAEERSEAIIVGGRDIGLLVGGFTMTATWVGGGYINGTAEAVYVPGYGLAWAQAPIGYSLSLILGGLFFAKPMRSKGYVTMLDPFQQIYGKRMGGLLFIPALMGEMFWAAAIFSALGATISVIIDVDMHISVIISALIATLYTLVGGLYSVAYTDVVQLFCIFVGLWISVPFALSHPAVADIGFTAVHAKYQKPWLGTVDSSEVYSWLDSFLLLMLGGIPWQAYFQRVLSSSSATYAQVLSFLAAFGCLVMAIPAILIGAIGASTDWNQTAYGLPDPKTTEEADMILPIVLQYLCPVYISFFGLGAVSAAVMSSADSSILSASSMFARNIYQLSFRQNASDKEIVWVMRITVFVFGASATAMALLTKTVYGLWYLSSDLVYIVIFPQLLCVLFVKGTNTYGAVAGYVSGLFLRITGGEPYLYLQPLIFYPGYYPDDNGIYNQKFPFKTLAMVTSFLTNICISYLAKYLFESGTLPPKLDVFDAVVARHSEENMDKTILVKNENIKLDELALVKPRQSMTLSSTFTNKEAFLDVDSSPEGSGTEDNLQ

[21] = target: ATP-dependent molecular chaperone HSP82 (Candida albicans (strain WO-1) (Yeast), UniProt C4YTQ8); test: steroid-induced GRE reporter decrease in yeast – S. cerevisiae, luminescence, Hsp90 inhibitor project, dose response (AID 2400); format: functional, cell-based;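 further: beta-galactosidase luminescence from glucocorticoid response element reporter as proxy for Hsp90 function; inhibitor potency where signal loss means Hsp90 inhibition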
[22] = activation of miR-122 Renilla sensor silencing – cell-based, Huh7 psiCHECK-miR122, Renilla luciferase, cherry-picked, dose response (AID 651956); format: functional;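 further: huh7 hepatoma cells stably carrying a psiCHECK-2 miR-122 sensor plasmid; renilla luciferase signal reporting endogenous miR-122 activity after 48 h compound exposure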
Mu-type opioid receptor = Mu-type opioid receptor (Homo sapiens, UniProt P35372); format: functional, cell-based;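 further: U2OS cells with beta-arrestin recruitment to OPRM1 by beta-gal complementation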
[23] = target: 5-hydroxytryptamine receptor 2A (Mus musculus, UniProt P35363); format: functional, cell-based;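 further: CHO-K1 cells with tagged receptor and beta-arrestin; agonist potency measured as compound-induced activation of the receptor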
Sequence of 5-hydroxytryptamine receptor 2A (P35363 whole entry): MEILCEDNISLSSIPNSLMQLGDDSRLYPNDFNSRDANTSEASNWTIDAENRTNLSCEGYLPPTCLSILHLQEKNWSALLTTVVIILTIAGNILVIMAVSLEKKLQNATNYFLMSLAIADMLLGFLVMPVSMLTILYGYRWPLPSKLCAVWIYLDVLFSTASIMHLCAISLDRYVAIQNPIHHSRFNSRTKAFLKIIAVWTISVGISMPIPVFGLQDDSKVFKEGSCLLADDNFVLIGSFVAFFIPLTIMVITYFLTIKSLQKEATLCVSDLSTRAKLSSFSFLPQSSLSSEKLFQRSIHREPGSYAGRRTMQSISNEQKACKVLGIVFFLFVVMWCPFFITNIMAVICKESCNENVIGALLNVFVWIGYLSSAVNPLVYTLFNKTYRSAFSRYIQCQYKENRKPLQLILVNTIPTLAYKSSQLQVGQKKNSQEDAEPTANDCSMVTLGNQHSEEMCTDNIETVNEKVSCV

Sequence of Phospholipase A2 (P04054 whole entry): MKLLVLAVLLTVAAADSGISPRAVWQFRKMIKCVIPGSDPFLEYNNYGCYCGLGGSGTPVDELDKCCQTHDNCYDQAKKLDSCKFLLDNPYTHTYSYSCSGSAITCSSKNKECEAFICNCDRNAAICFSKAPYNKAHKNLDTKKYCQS
T2 sequence (P49327 whole entry): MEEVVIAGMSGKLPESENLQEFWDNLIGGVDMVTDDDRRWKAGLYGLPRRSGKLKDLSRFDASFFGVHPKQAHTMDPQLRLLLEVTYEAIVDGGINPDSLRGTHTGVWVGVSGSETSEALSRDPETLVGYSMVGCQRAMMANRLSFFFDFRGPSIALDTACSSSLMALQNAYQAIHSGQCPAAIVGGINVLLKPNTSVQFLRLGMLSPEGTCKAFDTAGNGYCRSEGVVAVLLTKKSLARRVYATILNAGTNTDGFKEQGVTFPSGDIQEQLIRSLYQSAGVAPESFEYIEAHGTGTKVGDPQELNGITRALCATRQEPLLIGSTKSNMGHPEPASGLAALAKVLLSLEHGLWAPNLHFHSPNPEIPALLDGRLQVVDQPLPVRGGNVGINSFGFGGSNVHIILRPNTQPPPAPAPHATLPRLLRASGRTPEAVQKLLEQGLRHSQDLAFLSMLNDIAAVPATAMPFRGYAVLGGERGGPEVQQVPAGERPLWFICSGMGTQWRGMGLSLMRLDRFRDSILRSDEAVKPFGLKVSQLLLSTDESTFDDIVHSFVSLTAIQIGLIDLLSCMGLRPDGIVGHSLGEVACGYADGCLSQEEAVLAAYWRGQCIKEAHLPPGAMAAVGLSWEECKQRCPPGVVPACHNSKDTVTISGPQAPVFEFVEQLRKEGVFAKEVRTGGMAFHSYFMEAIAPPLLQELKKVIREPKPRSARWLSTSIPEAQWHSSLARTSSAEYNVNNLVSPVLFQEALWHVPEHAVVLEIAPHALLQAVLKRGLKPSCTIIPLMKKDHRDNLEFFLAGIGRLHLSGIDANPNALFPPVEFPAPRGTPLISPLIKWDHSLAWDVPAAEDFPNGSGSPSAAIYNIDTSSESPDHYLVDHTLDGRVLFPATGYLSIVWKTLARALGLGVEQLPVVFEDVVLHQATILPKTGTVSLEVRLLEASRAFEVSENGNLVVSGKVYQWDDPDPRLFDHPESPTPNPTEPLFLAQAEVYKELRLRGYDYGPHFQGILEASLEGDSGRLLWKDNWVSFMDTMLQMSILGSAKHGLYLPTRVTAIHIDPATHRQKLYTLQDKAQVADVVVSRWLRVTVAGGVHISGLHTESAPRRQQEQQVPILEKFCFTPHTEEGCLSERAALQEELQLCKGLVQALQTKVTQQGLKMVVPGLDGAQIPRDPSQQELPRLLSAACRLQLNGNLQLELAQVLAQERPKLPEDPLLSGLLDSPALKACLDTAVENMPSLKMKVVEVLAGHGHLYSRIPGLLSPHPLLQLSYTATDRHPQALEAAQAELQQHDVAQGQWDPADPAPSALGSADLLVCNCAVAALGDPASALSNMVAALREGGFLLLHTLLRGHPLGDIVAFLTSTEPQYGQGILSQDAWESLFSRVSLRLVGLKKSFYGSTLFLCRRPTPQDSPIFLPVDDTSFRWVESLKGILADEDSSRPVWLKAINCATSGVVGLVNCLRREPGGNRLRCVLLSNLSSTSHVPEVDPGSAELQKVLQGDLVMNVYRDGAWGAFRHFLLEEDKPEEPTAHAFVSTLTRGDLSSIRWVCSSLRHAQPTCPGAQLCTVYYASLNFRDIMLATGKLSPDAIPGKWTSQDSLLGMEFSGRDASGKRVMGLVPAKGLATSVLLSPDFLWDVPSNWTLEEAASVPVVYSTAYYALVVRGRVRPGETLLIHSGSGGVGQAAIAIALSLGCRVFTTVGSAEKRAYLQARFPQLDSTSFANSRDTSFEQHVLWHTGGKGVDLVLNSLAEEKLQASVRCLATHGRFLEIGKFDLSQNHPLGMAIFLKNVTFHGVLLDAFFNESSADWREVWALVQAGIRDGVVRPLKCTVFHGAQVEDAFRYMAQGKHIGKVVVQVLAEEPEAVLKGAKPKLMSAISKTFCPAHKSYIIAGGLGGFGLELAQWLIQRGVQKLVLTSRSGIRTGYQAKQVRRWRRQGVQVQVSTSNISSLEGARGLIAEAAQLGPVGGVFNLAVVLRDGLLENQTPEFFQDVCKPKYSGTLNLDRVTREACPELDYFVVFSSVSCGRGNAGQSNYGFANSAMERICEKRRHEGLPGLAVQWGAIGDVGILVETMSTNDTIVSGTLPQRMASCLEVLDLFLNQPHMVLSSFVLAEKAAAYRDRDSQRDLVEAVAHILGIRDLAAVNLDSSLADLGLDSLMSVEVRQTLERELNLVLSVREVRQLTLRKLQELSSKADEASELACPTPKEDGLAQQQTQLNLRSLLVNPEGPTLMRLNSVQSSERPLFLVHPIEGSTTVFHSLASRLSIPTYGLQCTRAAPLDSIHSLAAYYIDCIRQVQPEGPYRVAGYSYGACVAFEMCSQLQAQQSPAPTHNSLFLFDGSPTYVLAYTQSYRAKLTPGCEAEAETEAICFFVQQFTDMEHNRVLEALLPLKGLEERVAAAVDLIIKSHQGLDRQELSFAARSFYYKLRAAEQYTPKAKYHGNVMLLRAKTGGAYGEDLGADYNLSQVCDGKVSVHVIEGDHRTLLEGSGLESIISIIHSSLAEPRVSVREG
Sequence of ATP-dependent molecular chaperone HSP82 (C4YTQ8 whole entry): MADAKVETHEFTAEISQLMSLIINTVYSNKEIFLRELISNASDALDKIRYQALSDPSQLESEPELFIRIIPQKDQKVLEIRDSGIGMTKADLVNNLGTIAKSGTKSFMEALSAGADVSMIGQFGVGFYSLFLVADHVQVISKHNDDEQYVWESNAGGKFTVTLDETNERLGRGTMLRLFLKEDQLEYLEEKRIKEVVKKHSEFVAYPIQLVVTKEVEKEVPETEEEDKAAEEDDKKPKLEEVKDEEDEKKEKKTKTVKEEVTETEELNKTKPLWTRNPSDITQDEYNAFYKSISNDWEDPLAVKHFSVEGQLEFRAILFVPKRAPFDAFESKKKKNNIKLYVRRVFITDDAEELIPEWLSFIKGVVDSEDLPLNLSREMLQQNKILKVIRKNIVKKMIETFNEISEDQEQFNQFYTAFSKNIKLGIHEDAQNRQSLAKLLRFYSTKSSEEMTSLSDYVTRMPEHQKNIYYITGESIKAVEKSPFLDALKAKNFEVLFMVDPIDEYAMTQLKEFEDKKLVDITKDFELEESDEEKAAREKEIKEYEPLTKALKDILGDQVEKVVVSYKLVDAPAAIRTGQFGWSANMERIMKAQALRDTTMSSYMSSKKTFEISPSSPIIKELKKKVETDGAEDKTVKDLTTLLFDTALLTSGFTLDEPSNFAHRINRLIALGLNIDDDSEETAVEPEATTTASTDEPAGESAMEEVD
Sequence of Luciferin 4-monooxygenase (P08659 whole entry): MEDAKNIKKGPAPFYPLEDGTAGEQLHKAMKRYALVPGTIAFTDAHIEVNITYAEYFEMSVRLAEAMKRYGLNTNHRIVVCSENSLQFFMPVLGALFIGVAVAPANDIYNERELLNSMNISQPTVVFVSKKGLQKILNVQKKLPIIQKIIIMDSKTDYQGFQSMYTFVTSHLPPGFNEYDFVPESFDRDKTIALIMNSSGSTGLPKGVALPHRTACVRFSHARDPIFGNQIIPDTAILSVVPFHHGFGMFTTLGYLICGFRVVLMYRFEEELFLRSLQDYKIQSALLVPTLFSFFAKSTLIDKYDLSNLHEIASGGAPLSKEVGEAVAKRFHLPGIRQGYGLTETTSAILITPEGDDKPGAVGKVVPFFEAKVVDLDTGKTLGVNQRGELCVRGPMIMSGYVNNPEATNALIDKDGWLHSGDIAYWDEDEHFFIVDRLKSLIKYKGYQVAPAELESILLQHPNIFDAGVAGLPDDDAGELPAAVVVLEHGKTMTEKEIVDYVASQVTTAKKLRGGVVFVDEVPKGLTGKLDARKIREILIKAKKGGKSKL
Sequence of Mu-type opioid receptor (P35372 whole entry): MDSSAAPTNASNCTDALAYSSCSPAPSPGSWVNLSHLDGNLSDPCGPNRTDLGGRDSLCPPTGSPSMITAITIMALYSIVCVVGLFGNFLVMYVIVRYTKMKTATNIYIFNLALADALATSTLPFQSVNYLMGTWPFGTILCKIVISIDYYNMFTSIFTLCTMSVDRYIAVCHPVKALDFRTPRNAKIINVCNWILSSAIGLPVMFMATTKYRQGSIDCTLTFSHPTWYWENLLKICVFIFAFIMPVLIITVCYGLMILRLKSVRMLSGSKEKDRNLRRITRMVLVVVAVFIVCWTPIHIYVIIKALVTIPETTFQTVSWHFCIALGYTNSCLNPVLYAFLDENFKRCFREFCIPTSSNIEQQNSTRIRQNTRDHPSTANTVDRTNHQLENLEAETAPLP

In the case of `Cc1ccc(NC(=O)C2C3/C=C\CCCCC32)cc1C` (centres undefined), the CC50 [1] was > 100 µM (active).
For `COc1cc(C(=O)N/N=C/c2coc3ccc(Cl)cc3c2=O)ccc1O`, the IC50 (Cysteine protease ATG4B) was 3.35 µM (active), the IC50 (Phospholipase A2) was 16.2 µM (active) and the IC50 (Fatty acid synthase [2]) was 18.5 µM (active). For the same compound, the IC50 (Fatty acid synthase [3]) was 7.45 µM (active).
With `O=C(Oc1ccc(-c2nc(-c3ccccn3)no2)cc1)c1ccccc1` the EC50 (BJ [4]) was 4.55 µM (active), the EC50 (BJ [5]) was 3.19 µM (active) and the EC50 [6] was 0.421 µM (active). For the same compound, the EC50 [7] was 0.475 µM (active), the EC50 (BJ [8]) was 16.8 µM (active) and the EC50 [9] was 3.96 µM (active). For the same compound, the AC50 [10] was 2.63 µM (active), the EC50 (BJ [11]) was > 133 µM (inactive) and the IC50 [12] was > 99 µM (inactive).
With `CC[C@]12c3[nH]c4ccc(OC)cc4c3CCN1C(=O)C(CC(=O)NCC13C[C@H]4C[C@@H](C1)C[C@@H](C3)C4)C[C@@H]2C(=O)N1CCN(C(=O)C2CC2)CC1` (some centres undefined) the IC50 [13] was 12.9 µM (inactive).
For `CC1(C)COCN1S(=O)(=O)c1ccc(C(=O)Nc2nnc(-c3ccc(Cl)s3)o2)cc1`, the EC50 [14] was 68.5 µM (active), the IC50 [15] was 3.39 µM (active) and the EC50 [16] was 0.691 µM (active). The IC50 [17] was 3.33 µM (active), the EC50 [18] was 0.308 µM (active) and the EC50 [19] was > 180 µM (inactive). For the same compound, the EC50 (Streptococcus) was 0.841 µM (active), the IC50 [20] was 13.8 µM (active) and the EC50 [21] was 22.2 µM (active).
For `COc1ccc(C#Cc2ccc3c(c2)O[C@H](CN(C)C(=O)CN2CCOCC2)[C@H](C)CN([C@H](C)CO)S3(=O)=O)cc1`, the AC50 [22] was 12.3 µM (active).
In the case of `COC(=O)c1c(NC(=O)C2Cc3ccccc3C(=O)O2)sc2c1CCCC2` (centres undefined), the IC50 (Cysteine protease ATG4B) was 1.62 µM (active) and the IC50 (Phospholipase A2) was 1.02 µM (active).
With `CNCC(=O)c1ccc(O)c(O)c1` [ADRENALONE] the EC50 (Mu-type opioid receptor) was 92.4 µM (inactive) and the EC50 [23] was 4.04 µM (active).
